Key:
Assay in all cases: relative viability (nuclei count vs DMSO), 5 days (fraction); higher = more cells survive
QS11 + Palbociclib = compound: C1CC2=C(C1)C=C(C=C2)OC3=NC(=C4C(=N3)N(C=N4)CC5=CC=C(C=C5)C6=CC=CC=C6)N[C@@H](CC7=CC=CC=C7)CO [QS11] + CC(=O)c1c(C)c2cnc(Nc3ccc(N4CCNCC4)cn3)nc2n(C2CCCC2)c1=O [Palbociclib] (partner 0.5 µM)
How it was run: (§1)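 Cells from lung cancer lines were seeded into 1536-well plates and, one day later, dosed by pin tool. Treatments were either a single drug or a fixed dose of an anchor drug with five library-drug doses (not always all listed) in √10 steps. After 5 days, nuclei were stained in a one-step fixation (final 0.05% Triton X-100, 1% formaldehyde, 1 ug/ml Hoechst) and counted on 4× images, and relative viability is the treated-to-vehicle nuclei ratio, as the median of duplicate plates.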

AZ628 + Trametinib = compound: CC1=C(C=C(C=C1)NC(=O)C2=CC(=CC=C2)C(C)(C)C#N)NC3=CC4=C(C=C3)N=CN(C4=O)C [AZ628] + CC(=O)Nc1cccc(-n2c(=O)n(C3CC3)c(=O)c3c(Nc4ccc(I)cc4F)n(C)c(=O)c(C)c32)c1 [Trametinib] (partner 0.02 µM)
How it was run: as §1

AZ628 + Alpelisib = compound: CC1=C(C=C(C=C1)NC(=O)C2=CC(=CC=C2)C(C)(C)C#N)NC3=CC4=C(C=C3)N=CN(C4=O)C [AZ628] + Cc1nc(NC(=O)N2CCC[C@H]2C(N)=O)sc1-c1ccnc(C(C)(C)C(F)(F)F)c1 [Alpelisib] (partner 2 µM)
How it was run: as §1

[1] = compound: C[As](C)SC[C@H](NC(=O)CC[C@H](N)C(=O)O)C(=O)NCC(=O)O [Darinaparsin] + CCNC(=O)c1noc(-c2cc(C(C)C)c(O)cc2O)c1-c1ccc(CN2CCOCC2)cc1 [Luminespib] (partner 0.01 µM)
How it was run: as §1

Row | Cell Line | relative viability (QS11 + Palbociclib; first compound 0.08 µM) | relative viability (QS11 + Palbociclib; first compound 0.253 µM) | relative viability (QS11 + Palbociclib; first compound 0.8 µM) | relative viability (QS11 + Palbociclib; first compound 2.53 µM) | relative viability (QS11 + Palbociclib; first compound 8 µM) | relative viability (AZ628 + Trametinib; first compound 0.08 µM) | relative viability (AZ628 + Trametinib; first compound 0.253 µM) | relative viability (AZ628 + Trametinib; first compound 0.8 µM) | relative viability (AZ628 + Trametinib; first compound 2.53 µM) | relative viability (AZ628 + Trametinib; first compound 8 µM) | relative viability (AZ628 + Alpelisib; first compound 0.08 µM) | relative viability (AZ628 + Alpelisib; first compound 0.253 µM) | relative viability (AZ628 + Alpelisib; first compound 0.8 µM) | relative viability (AZ628 + Alpelisib; first compound 2.53 µM) | relative viability (AZ628 + Alpelisib; first compound 8 µM) | relative viability ([1]; first compound 0.08 µM) | relative viability ([1]; first compound 0.8 µM) | relative viability ([1]; first compound 2.53 µM) | relative viability ([1]; first compound 8 µM)
1 | NCI-H2126 | 0.345 | 0.381 | 0.341 | 0.343 | 0.304 | 0.559 | 0.512 | 0.498 | 0.562 | 0.481 | 0.819 | 0.734 | 0.83 | 0.783 | 0.653 | 0.984 | 1.02 | 0.722 | 0.931
2 | LK-2 | 0.723 | 0.826 | 0.777 | 0.507 | 0.705 | 0.332 | 0.468 | 0.251 | 0.27 | 0.301 | 1.23 | 1.27 | 0.834 | 1.08 | 0.296 | 0.175 | – | 0.173 | 0.174
3 | NCI-H1703 | – | – | – | – | – | – | – | – | – | – | 0.216 | 0.2 | 0.215 | 0.213 | 0.181 | – | – | – | –
4 | Calu-6 | – | – | – | – | – | – | – | – | – | – | 0.937 | 0.835 | 0.416 | 0.541 | 0.171 | – | – | – | –
5 | NCI-H1650 | 0.354 | 0.251 | 0.271 | 0.355 | 0.245 | 0.502 | 0.541 | 0.329 | 0.327 | 0.497 | – | – | – | – | – | 0.238 | 0.214 | 0.187 | 0.173
6 | IA-LM | – | – | – | – | – | – | – | – | – | – | 0.805 | 0.731 | 0.552 | 0.586 | 0.207 | – | – | – | –
7 | HCC-78 | 0.462 | 0.531 | 0.464 | 0.457 | 0.358 | 0.613 | 0.424 | 0.377 | 0.375 | 0.46 | 0.5 | 0.336 | 0.346 | 0.368 | 0.504 | – | – | – | –
8 | A549 | – | – | – | – | – | – | – | – | – | – | 0.688 | 0.677 | 0.5 | 0.565 | 0.258 | – | – | – | –
9 | EBC-1 | – | – | – | – | – | – | – | – | – | – | 0.865 | 0.859 | 0.949 | 0.811 | 0.298 | – | – | – | –
10 | NCI-H1623 | – | – | – | – | – | – | – | – | – | – | – | – | – | – | – | 0.538 | 0.572 | 0.496 | 0.43
11 | NCI-H522 | 0.766 | 0.841 | 0.987 | 1.15 | 1.19 | 0.768 | 0.745 | 0.678 | 0.732 | 0.584 | – | – | – | – | – | 1.1 | 1.22 | 1.28 | 1.15
12 | NCI-H1299 | – | – | – | – | – | – | – | – | – | – | 1.01 | 1.22 | 1.22 | 1.24 | 0.763 | – | – | – | –
13 | NCI-H1563 | – | – | – | – | – | – | – | – | – | – | 0.982 | 0.874 | 0.858 | 0.967 | 0.893 | 0.588 | 0.429 | 0.495 | 0.473
14 | SW 900 | 0.588 | 0.593 | 0.456 | 0.481 | 0.425 | 0.506 | 0.663 | 0.568 | 0.555 | 0.309 | – | – | – | – | – | 0.169 | 0.169 | 0.17 | 0.166
15 | NCI-H596 | – | – | – | – | – | 0.779 | 0.711 | 0.622 | 0.786 | 0.756 | 0.504 | 0.553 | 0.567 | 0.498 | 0.422 | 1.14 | 1.12 | 0.951 | 0.966

Source: the supplement of paper PMC10307832
